pIC50: −log10 of the molar value.
Experiments:
22Rv1-Enz^R = 22Rv1-Enz^R cell proliferation assay, GIC50 (Experimental Example 4); type: cell-based; conditions: Homo sapiens; 6-day culture, cell media changed every 24 hours
Experimental: Selected compounds were tested in the human prostate cancer cell line, 22Rv1-Enz^R as described in Geun Taek Lee et al., Molecular Cancer Therapeutics, 20:490-9 (2021). These procedures are similar to that described in Experimental Example 1, above, except that the assay conditions are a 6-day culture with cell media changed every 24 hours.
In the Table: (+)—GIC50<20 μM; (++)—GIC50<10 μM; (+++)—GIC50<1 μM.

AR-V7 = target: T1, AR-V7 (Homo sapiens, UniProt P10275); assay: Immunoblot of AR-V7 in harvested xenograft tumors; type: in vivo; parameters: endogenous in cells; host or cells: 22Rv1 (also VCaP, LNCaP and SAT-resistant sublines)
T1 sequence (P10275 1-644 isoform P10275-3): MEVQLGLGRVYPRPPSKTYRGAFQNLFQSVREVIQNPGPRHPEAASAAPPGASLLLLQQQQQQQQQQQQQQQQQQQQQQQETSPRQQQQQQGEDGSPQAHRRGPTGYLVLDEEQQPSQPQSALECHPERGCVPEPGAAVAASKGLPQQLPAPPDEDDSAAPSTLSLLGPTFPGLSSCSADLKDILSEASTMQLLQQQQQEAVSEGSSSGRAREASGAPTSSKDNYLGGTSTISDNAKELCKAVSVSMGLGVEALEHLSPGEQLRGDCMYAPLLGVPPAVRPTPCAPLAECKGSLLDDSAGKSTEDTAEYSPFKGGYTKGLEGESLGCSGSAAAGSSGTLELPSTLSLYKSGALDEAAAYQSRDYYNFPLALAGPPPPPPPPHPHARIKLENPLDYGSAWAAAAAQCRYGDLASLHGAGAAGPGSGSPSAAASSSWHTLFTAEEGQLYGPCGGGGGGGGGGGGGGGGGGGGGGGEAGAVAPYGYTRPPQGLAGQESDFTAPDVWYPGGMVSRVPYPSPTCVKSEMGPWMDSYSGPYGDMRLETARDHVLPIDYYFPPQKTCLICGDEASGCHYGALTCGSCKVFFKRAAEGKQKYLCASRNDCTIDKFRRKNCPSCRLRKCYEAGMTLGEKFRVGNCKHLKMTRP
Experimental: Immunoblot Analysis. CaP cells are collected and lysed with the lysis buffer (20 mM Tris-HCl (pH 7.5), 150 mM NaCl, 1 mM Na2EDTA, 1 mM EGTA, 1% Triton, 2.5 mM sodium pyrophosphate, 1 mM beta-glycerophosphate, 1 mM Na3VO4, and 1 μg/ml leupeptin) containing 1 mM phenylmethylsulfonyl fluoride (PMSF). Cell lysates are then centrifuged and protein in the supernatant is quantified. After separating 25-50 μg of protein using SDS-PAGE, samples are incubated with AR-V7, GR, PR, ERα, AR-FL, ubiquitin, or β-actin antibodies. For AR-V7, AR-FL, PR, GR, and ERα immunoblots, primary antibody is diluted 1:1000 in 5% skim milk. For the β-actin immunoblot, 1:10000 diluted primary antibody is used. […] Following the incubation with appropriate secondary antibody, immunoblots are analyzed using SuperSignal West Femto Maximum Sensitivity Substrate (ThermoFisher).
Mice are then treated daily with Test Compound with or without enzalutamide via the indicated route (intratumoral, intraperitoneal, or oral) for five to six weeks. At the end of the study, all animals are sacrificed and tumors are harvested and analyzed. Statistical significance is calculated using the Student's t-test for paired comparisons of experimental groups and, where appropriate, by Wilcoxon rank sum test, and by 2-way ANOVA. […]
The in vivo effects of the Compound of Example 16 are assessed in mice using enzalutamide-resistant CaP xenografts. […]

AR-FL = target: T2, AR-FL (Homo sapiens, UniProt P10275, DUP590-628/H875Y); assay: Immunoblot of AR-FL polyubiquitination in 22Rv1 pretreated with MG132; type: cell-based; parameters: decreased AR-V7 and AR-FL protein expression levels in 22Rv1 cells; endogenous in cells; host or cells: 22Rv1; conditions: 22Rv1 pretreated with MG132 two hours; compound 1 μM
T2 sequence (P10275 with tags, fused parts or gaps DUP590-628/H875Y): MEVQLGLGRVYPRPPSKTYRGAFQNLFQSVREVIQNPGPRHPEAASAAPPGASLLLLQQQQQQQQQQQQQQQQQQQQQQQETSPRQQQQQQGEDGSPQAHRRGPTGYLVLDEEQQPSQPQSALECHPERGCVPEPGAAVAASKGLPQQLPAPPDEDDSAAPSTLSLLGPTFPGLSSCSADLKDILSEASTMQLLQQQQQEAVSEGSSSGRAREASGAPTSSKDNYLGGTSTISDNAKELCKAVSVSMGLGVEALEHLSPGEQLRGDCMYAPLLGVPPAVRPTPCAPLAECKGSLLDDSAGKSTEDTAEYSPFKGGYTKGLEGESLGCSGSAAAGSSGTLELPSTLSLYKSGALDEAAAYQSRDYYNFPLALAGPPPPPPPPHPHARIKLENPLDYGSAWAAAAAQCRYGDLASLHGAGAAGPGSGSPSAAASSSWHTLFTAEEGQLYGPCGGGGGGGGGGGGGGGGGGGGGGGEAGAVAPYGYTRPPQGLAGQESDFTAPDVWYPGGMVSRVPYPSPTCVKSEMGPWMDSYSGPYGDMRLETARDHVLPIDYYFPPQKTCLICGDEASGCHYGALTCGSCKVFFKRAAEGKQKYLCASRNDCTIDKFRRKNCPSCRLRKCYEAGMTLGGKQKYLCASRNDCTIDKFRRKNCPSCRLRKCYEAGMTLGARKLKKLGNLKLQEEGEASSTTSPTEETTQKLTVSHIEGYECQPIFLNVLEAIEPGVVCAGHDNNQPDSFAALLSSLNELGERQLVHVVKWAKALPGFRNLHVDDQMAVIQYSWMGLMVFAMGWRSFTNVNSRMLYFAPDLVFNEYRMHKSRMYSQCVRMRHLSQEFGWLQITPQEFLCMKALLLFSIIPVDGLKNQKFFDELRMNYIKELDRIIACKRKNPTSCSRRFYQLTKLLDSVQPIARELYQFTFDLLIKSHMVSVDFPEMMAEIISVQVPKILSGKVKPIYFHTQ
Experimental: Immunoblot Analysis. CaP cells are collected and lysed with the lysis buffer (20 mM Tris-HCl (pH 7.5), 150 mM NaCl, 1 mM Na2EDTA, 1 mM EGTA, 1% Triton, 2.5 mM sodium pyrophosphate, 1 mM beta-glycerophosphate, 1 mM Na3VO4, and 1 μg/ml leupeptin) containing 1 mM phenylmethylsulfonyl fluoride (PMSF). Cell lysates are then centrifuged and protein in the supernatant is quantified. After separating 25-50 μg of protein using SDS-PAGE, samples are incubated with AR-V7, GR, PR, ERα, AR-FL, ubiquitin, or β-actin antibodies. For AR-V7, AR-FL, PR, GR, and ERα immunoblots, primary antibody is diluted 1:1000 in 5% skim milk. For the β-actin immunoblot, 1:10000 diluted primary antibody is used. All membranes are incubated overnight at 4° C. Following the incubation with appropriate secondary antibody, immunoblots are analyzed using SuperSignal West Femto Maximum Sensitivity Substrate (ThermoFisher).
To determine the ubiquitination status of AR proteins, 22Rv1 is pretreated with MG132 for two hours prior to adding Compound of Example 16 (at 1 μM).

`Cc1ncsc1-c1ccc([C@H](C)NC(=O)[C@@H]2C[C@@H](O)CN2C(=O)[C@@H](NC(=O)CCCCNC(=O)COc2c(-c3csc(N4CCOCC4)n3)ccc(F)c2F)C(C)(C)C)cc1` [Example 16, (2S,4R)-1-((S)-2-(5-(2-(2,3-difluoro-6-(2-morpholinothiazol-4-yl)phenoxy)acetamido)pentanamido)-3,3-dimethylbutanoyl)-4-hydroxy-N-((S)-1-(4-(4-methylthiazol-5-yl)phenyl)ethyl)pyrrolidine-2-carboxamide] was tested, and the pIC50 (22Rv1-Enz^R) was greater than 6.00, the “AR-V7 protein expression in Enz^R CaP tumors” value (AR-V7; IP administration) was “decreased” and the “AR-V7 protein level in treated tumors” value (AR-V7; intratumoral, 22Rv1-Enz^R xenograft, end of study) was “significant decrease”. For the same compound, the “time of detection of AR-FL polyubiquitination after treatment” value (AR-FL) was 24 h.

From patent US20230132823A1, “BI-FUNCTIONAL COMPOUNDS AND METHODS FOR TARGETED UBIQUITINATION OF ANDROGEN RECEPTOR” (MONTELINO THERAPEUTICS, INC., priority 2020, published 2023)
